According to US12410171B2, “Tropomyosin receptor kinase (TRK) degradation compounds and methods of use” (Cullgen (Shanghai), Inc., priority 2020, dated 2025):
Read-outs that look alike come from different tables or passages of the source.

Assays:
[1] = test system: KM12 cells; experiment: KM12 cell viability (CellTiter-Glo); format: cell-based; details: for IC50: Homo sapiens
In short: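 KM12 cells seeded at 5000 per well in RPMI 1640 + 10% FBS and exposed 3 days to serial dilutions (11-point 3-fold, 8-point 3-fold from 1000 nM, or 12-point 2-fold). Viability by CellTiter-Glo; IC50 from least-squares nonlinear regression.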

[2] = molecular target: T1, TPM3-TRKA fusion protein (Homo sapiens, UniProt P04629); experiment: TPM3-TRKA fusion protein levels in KM12 cells (Western blot); format: cell-based; details: for percent degradation of TPM3-TRKA protein at 0.01 µM: read-out: Degradation (at 10 nM)
T1 construct: The resulted chimeric proteins always retain the kinase domain of TRK proteins; TPM3 (fusion partner, N-terminal part of tropomyosin alpha-3, P06753); endogenous in cells; host or cells: KM12 colon cancer cells; the other entry of the earlier key: TPM3 (P06753, Tropomyosin alpha-3 chain)
T1 sequence (P04629 with tags, fused parts or gaps): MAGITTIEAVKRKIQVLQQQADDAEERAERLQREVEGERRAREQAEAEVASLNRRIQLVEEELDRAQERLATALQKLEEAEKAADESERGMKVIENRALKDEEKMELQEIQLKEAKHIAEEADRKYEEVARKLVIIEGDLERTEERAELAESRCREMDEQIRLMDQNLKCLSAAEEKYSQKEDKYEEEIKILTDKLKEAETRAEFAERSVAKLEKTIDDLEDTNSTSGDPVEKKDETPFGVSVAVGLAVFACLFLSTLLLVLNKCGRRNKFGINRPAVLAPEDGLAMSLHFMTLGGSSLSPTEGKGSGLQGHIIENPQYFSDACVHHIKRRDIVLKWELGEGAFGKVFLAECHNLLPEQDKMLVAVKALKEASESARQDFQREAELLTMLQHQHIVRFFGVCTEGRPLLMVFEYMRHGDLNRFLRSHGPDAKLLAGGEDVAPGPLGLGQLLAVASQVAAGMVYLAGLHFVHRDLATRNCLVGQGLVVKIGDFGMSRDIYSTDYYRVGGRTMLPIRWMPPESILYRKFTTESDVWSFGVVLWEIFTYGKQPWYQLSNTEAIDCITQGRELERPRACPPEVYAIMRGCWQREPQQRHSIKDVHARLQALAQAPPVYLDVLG
In short: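 KM12 colon cancer cells were treated with DMSO or compounds at 0.1–100 nM, 0.4–30 nM or other stated concentrations for 4, 8–16 or 16 h. RIPA lysates were BCA-normalized and resolved by SDS-PAGE. TPM3-TRKA was detected by chemiluminescent Western blot, with bands quantified by densitometry.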

[3] = 72 h, KM12 cell viability, CellTiter-Glo, three days treatment, read-out: IC50
[4] = 16 h, TPM3-TRKA degradation in KM12 cells at 10 nM compound, category of percentage degradation
[5] = 72 h, KM12 cell viability, 11-point 3-fold serial dilution, 3 days, CellTiter-Glo, read-out: IC50
[6] = 16 h, TPM3-TRKA degradation in KM12 cells at 10 nM

| percent degradation of TPM3-TRKA protein at 0.01 µM [2, 4] [%] | Structure (SMILES) | IC50 [1, 3] [nM] | also measured |
| --- | --- | --- | --- |
| > 80 | O=C1CCC(N2Cc3cc(N4CC(N5CCN(c6ccc(C(=O)Nc7n[nH]c8ccc(Cc9cc(F)cc(F)c9)cc78)c(NC7CCOCC7)c6)CC5)C4)ccc3C2=O)C(=O)N1 (stereo not shown) [TR-332, N-(5-(3,5-difluorobenzyl)-1H-indazol-3-yl)-4-(4-(1-(2-(2,6-dioxopiperidin-3-yl)-1-oxoisoindolin-5-yl)azetidin-3-yl)piperazin-1-yl)-2-((tetrahydro-2H-pyran-4-yl)amino)benzamide] | 1.7 | – |
| > 80 | O=C1CCC(N2C(=O)c3ccc(N4CCOC(CN5CCN(c6cccc(-c7cnc8ccc(N9CCC[C@@H]9c9cccc(F)c9)nn78)n6)CC5)C4)cc3C2=O)C(=O)N1 (stereo partly drawn) [TR-286, 2-(2,6-dioxopiperidin-3-yl)-5-(2-((4-(6-(6-((R)-2-(3-fluorophenyl)pyrrolidin-1-yl)imidazo[1,2-b]pyridazin-3-yl)pyridin-2-yl)piperazin-1-yl)methyl)morpholino) isoindoline-1,3-dione] | 7.8 | – |
| > 80 | O=C1CCC(N2Cc3ccc(N4CC(CN5CCN(c6ccc(C(=O)Nc7n[nH]c8ccc(Cc9cc(F)cc(F)c9)cc78)c(NC7CCOCC7)c6)CC5)C4)cc3C2=O)C(=O)N1 (stereo not shown) [TR-318, N-(5-(3,5-difluorobenzyl)-1H-indazol-3-yl)-4-(4-((1-(2-(2,6-dioxopiperidin-3-yl)-3-oxoisoindolin-5-yl)azetidin-3-yl)methyl)piperazin-1-yl)-2-((tetrahydro-2H-pyran-4-yl)amino)benzamide] | 2.4 | – |
| > 80 | O=C1CCC(N2C(=O)c3ccc(N4CC5(C4)CN(C4CCN(c6ccc(C(=O)Nc7n[nH]c8ccc(Cc9cc(F)cc(F)c9)cc78)c(NC7CCOCC7)c6)CC4)C5)cc3C2=O)C(=O)N1 (stereo not shown) [TR-340, N-(5-(3,5-difluorobenzyl)-1H-indazol-3-yl)-4-(4-(6-(2-(2,6-dioxopiperidin-3-yl)-1,3-dioxoisoindolin-5-yl)-2,6-diazaspiro[3.3]heptan-2-yl)piperidin-1-yl)-2-((tetrahydro-2H-pyran-4-yl)amino)benzamide] | 7.5 | – |
| > 80 | O=C1CCC(N2C(=O)c3ccc(C#CCN4CCN(c5ccc(C(=O)Nc6n[nH]c7ccc(Cc8cc(F)cc(F)c8)cc67)c(NC6CCOCC6)c5)CC4)cc3C2=O)C(=O)N1 (stereo not shown) [TR-283, N-(5-(3,5-Difluorobenzyl)-1H-indazol-3-yl)-4-(4-(3-(2-(2,6-dioxopiperidin-3-yl)-1,3-dioxoisoindolin-5-yl)prop-2-yn-1-yl)piperazin-1-yl)-2-((tetrahydro-28-pyran-4-yl)amino)benzamide] | 54 | – |
| 50 to 80 | Cc1nc2cccc(N3CC(CN4CCN(c5cccc(-c6cnc7ccc(N8CCC[C@@H]8c8cccc(F)c8)nn67)n5)CC4)C3)c2c(=O)n1C1CCC(=O)NC1=O (stereo partly shown) [TR-295] | 30 | – |
| > 80 | O=C1CCC(N2C(=O)c3ccc(NC4CCC(N5CCN(c6ccc(C(=O)Nc7n[nH]c8ccc(Cc9cc(F)cc(F)c9)cc78)c(NC7CCOCC7)c6)CC5)C4)cc3C2=O)C(=O)N1 (stereo not shown) [TR-299, N-(5-(3,5-Difluorobenzyl)-1H-indazol-3-yl)-4-(4-(3-((2-(2,6-dioxopiperidin-3-yl)-1,3-dioxoisoindolin-S-yl)amino)cyclopentyl)piperazin-1-yl)-2-((tetrahydro-2/-pyran-4-yl)amino)benzamide] | 23 | – |

More lines, now with the values behind:

| Structure (SMILES) | percent degradation of TPM3-TRKA protein at 0.01 µM [2, 4] [%] | IC50 [1, 3] [nM] | also measured |
| --- | --- | --- | --- |
| O=C1CCC(N2Cc3cc(C#CCN4CCN(c5ccc(C(=O)Nc6n[nH]c7ccc(Cc8cc(F)cc(F)c8)cc67)c(NC6CCOCC6)c5)CC4)ccc3C2=O)C(=O)N1 (stereo not shown) [TR-253, N-(5-(3,5-Difluorobenzyl)-1H-indazol-3-yl)-4-(4-(3-(2-(2,6-dioxopiperidin-3-yl)-1-oxoisoindolin-5-yl)prop-2-yn-1-yl)piperazin-1-yl)-2-((tetrahydro-2H-pyran-4-yl)amino)benzamide] | > 80 | 6.9 | – |
| Cn1c(=O)n(C2CCC(=O)NC2=O)c2cccc(C#CCN3CCN(c4cccc(-c5cnc6ccc(N7CCC[C@@H]7c7cccc(F)c7)nn56)n4)CC3)c21 (stereo partly drawn) [TR-238, 3-(4-(3-(4-(6-(6-((R)-2-(3-Fluorophenyl)pyrrolidin-1-yl)imidazo[1,2-b]pyridazin-3-yl)pyridin-2-yl)piperazin-1-yl)prop-1-yn-1-yl)-3-methyl-2-oxo-2,3-dihydro-1H-benzo[d]imidazol-1-yl)piperidine-2,6-dione] | – | – | IC50 ([1]; KM12, 72 h): 16.2 nM; percent degradation of TPM3-TRKA protein at 0.01 µM ([2]; KM12, 16 h): > 80% |
| O=C1CCC(N2C(=O)c3ccc(NCCOCCC(=O)N4CCC(Nc5cccc(C(=O)Nc6cnn7ccc(N8CCC[C@@H]8c8cc(F)ccc8F)nc67)n5)CC4)cc3C2=O)C(=O)N1 (stereo partly drawn) [CPD-473, N-(5-((R)-2-(2,5-difluorophenyl)pyrrolidin-1-yl)pyrazolo[1,5-a]pyrimidin-3-yl)-6-((1-(3-(2-((2-(2,6-dioxopiperidin-3-yl)-1,3-dioxoisoindolin-5-yl)amino)ethoxy)propanoyl)piperidin-4-yl)amino)picolinamide] | – | – | IC50 [1, 5]: 24 nM; percent degradation of TPM3-TRKA protein at 0.01 µM [2, 6]: > 80% |
| O=C1CCC(N2C(=O)c3ccc(CN4CC(N5CCN(c6ccc(C(=O)Nc7n[nH]c8ccc(Cc9cc(F)cc(F)c9)cc78)c(NCCF)c6)CC5)C4)cc3C2=O)C(=O)N1 (stereo not drawn) [TR-252, N—(S-(3,5-Difluorobenzyl)-1H-indazol-3-yl)-4-(4-(1-((2-(2,6-dioxopiperidin-3-yl)-1,3-dioxoisoindolin-5-yl)methyl)azetidin-3-yl)piperazin-1-yl)-2-((2-fluoroethyl)amino)benzamide] | – | – | IC50 ([1]; KM12, 72 h): 47.6 nM; percent degradation of TPM3-TRKA protein at 0.01 µM ([2]; KM12, 16 h): > 80% |
| O=C1CCC(N2C(=O)c3ccc(NCCCCC(=O)N4CCN(c5cccc(-c6cnc7ccc(N8CCC[C@@H]8c8cccc(F)c8)nn67)n5)CC4)cc3C2=O)C(=O)N1 (stereo partly drawn) [TR-115, 2-(2,6-Dioxopiperidin-3-yl)-5-((5-(4-(6-(6-((R)-2-(3-fluorophenyl)pyrrolidin-1-yl)imidazo[1,2-b]pyridazin-3-yl)pyridin-2-yl)piperazin-1-yl)-5-oxopentyl)amino) isoindoline-1,3-dione] | > 80 | 0.9 | – |
| O=C1CCC(N2C(=O)c3cccc(NCCCC(=O)N4CCN(c5ccc(C(=O)Nc6n[nH]c7ccc(Cc8cc(F)cc(F)c8)cc67)c(NC6CCOCC6)c5)CC4)c3C2=O)C(=O)N1 (stereo not shown) [CPD-053, N-(5-(3,5-Difluorobenzyl)-1H-indazol-3-yl)-4-(4-(4-((2-(2,6-dioxopiperidin-3-yl)-1,3-dioxoisoindolin-4-yl)amino)butanoyl)piperazin-1-yl)-2-((tetrahydro-2H-pyran-4-yl)amino)benzamide] | > 80 | 1.5 | viability of KM12 cells ([1]; 500 nM, 12-point 2-fold serial dilution, 3 days (FIG. 4A)): inhibited the viability of KM12 cells; viability of KM12 cells ([1]; 1000 nM, 8-point 3-fold serial dilution, 3 days (FIG. 4B)): significantly inhibited the viability of KM12 cells; TPM3-TRKA protein levels ([2]; KM12 cells, 100 nM, indicated incubation time, Western blot (FIG. 2)): rapidly reduced TPM3-TRKA protein levels |
| O=C1CCC(N2C(=O)c3ccc(N4CC(NC5CCN(c6cccc(-c7cnc8ccc(N9CCC[C@@H]9c9cccc(F)c9)nn78)n6)CC5)C4)cc3C2=O)C(=O)N1 (stereo partly drawn) [TR-288, 2-(2,6-dioxopiperidin-3-yl)-5-(3-((1-(6-(6-((R)-2-(3-fluorophenyl)pyrrolidin-1-yl)imidazo[1,2-b]pyridazin-3-yl)pyridin-2-yl)piperidin-4-yl)amino)azetidin-1-yl)isoindoline-1,3-dione] | – | 9.2 | percent degradation of TPM3-TRKA protein at 0.01 µM ([2]; KM12, 16 h): > 80% |
| O=C1CCC(N2C(=O)c3ccc(CCC(=O)N4CCN(c5cccc(-c6cnc7ccc(N8CCC[C@@H]8c8cccc(F)c8)nn67)n5)CC4)cc3C2=O)C(=O)N1 (stereo partly drawn) [TR-194, 2-(2,6-Dioxopiperidin-3-yl)-5-(3-(4-(6-(6-((R)-2-(3-fluorophenyl)pyrrolidin-1-yl)imidazo[1,2-b]pyridazin-3-yl)pyridin-2-yl)piperazin-1-yl)-3-oxopropyl)isoindoline-1,3-dione] | 50 to 80 | 7.4 | – |
| Cn1c(=O)n(C2CCC(=O)NC2=O)c2cccc(NCCN3CCN(c4ccc(C(=O)Nc5n[nH]c6ccc(Cc7cc(F)cc(F)c7)cc56)c(NC5CCOCC5)c4)CC3)c21 (stereo not shown) [TR-325, N-(5-(3,5-difluorobenzyl)-1H-indazol-3-yl)-4˜ (4-(2-((1-(2,6-dioxopiperidin-3-yl)-3-methyl-2-oxo-2,3-dihydro-1H-benzo[d]imidazol-4-yl)amino)ethyl)piperazin-1-yl)-2-((tetrahydro-2H-pyran-4-yl)amino)benzamide] | – | – | IC50 ([1]; KM12, 72 h): 13 nM; percent degradation of TPM3-TRKA protein at 0.01 µM ([2]; KM12, 16 h): > 80% |
| O=C1CCC(N2C(=O)c3ccc(NCCOCCOCCOCCOCCC(=O)N4CCC(Nc5cccc(C(=O)Nc6cnn7ccc(N8CCC[C@@H]8c8cc(F)ccc8F)nc67)n5)CC4)cc3C2=O)C(=O)N1 (stereo partly drawn) [CPD-476, N-(5-((R)-2-(2,5-difluorophenyl)pyrrolidin-1-yl)pyrazolo[1,5-a]pyrimidin-3-yl)-6-((1-(1-((2-(2,6-dioxopiperidin-3-yl)-1,3-dioxoisoindolin-5-yl)amino)-3,6,9,12-tetraoxapentadecan-15-oyl)piperidin-4-yl)amino)picolinamide] | – | – | IC50 [1, 5]: 22.4 nM; percent degradation of TPM3-TRKA protein at 0.01 µM [2, 6]: > 80% |
